Entries after “also recorded” stand apart in the source; their conditions may differ. Values belong to the compound of their own block, whether it stands above or below them. Where a SMILES comes first, the peptide text is derived from it. The star is where a group is joined. Cbz = O=C(OCc1ccccc1)*; CH2F = FC*
Key:
leukocytes = details: cited from earlier work
PD-L1 on APC = test: PD-L1 surface expression on APC (Mo, mDC) of PBMC cultured with caspase inhibitors; format: cell-based, human
Description: (§1) In order to determine which caspase (or caspases) is responsible for downmodulation of PD-L1 during active lupus, the effects of specific caspase inhibitors on PD-L1 expression in human APC were tested (Table IV). Control and SLE PBMC were incubated for one day in the presence of the individual caspase inhibitors at doses ranging from 10 uM to 50 uM (R&D Systems), with the appropriate level of DMSO as the carrier control (0.5% final concentration). Treated cells were assayed for cell death and apoptosis using Annexin V and PI (example shown in FIG. 4), as well as stained for cell-surface expression of PD-L1 on APC.
(§2) PBMC were thawed, washed, and diluted to 1-2×10^6 cells/ml in culture medium consisting of RPMI 1640 with L-glutamine (CellGro), 10% heat-inactivated NB human serum (Valley Biomedical), 1% penicillin/streptomycin (CellGro), and 0.1% beta-mercaptoethanol. Cells were plated in round-bottom 96-well plates (Coming Costar) and incubated at 37° C. in a humidified cell chamber with 5% CO2. Some wells were treated with pan-/poly-caspase inhibitors at the time of plating: 50 uM Q- Val-Asp-(non-o-methylated)—OPh (OPH) or Z- Val-Ala-Asp-(beta-o-methyl)-fluroromethylketone (Z-VAD) (both from R&D Systems), or DMSO as the carrier control (0.5% final concentration).
(§3) At the timepoints indicated, cells were surface-stained using fluorochrome- or biotin-conjugated monoclonal antibodies: anti-CD1c, (Miltenyi), anti-CD3, anti-PD-L1 (eBioscience), anti-CD11b, anti-CD11c, anti-CD14, anti-CD-86, anti-PD-L2 (Pharmingen/BD Biosciences), anti-CD45RO, anti-CD80, anti-CD83, and/or anti-HLA-DR (BioLegend), with isotype-matched, fluorochrome/biotin-labeled irrelevant monoclonal antibodies as controls. All samples were blocked using 0.5% human serum and anti-FeR antibody (Miltenyi) during staining. Cells were fixed using 2% paraformaldehyde in PBS after preliminary experiments indicated no effect of cell fixation on expression levels of PD-L1 and other surface markers. To assess apoptosis, some cultures were stained in parallel with Annexin V and propidium iodide (PI) (both from Becton Dickinson) as per the manufacturer's instructions. Flow cytometry was performed using a FACSCalibur or LSR II cytometer (Becton Dickinson), and data were analyzed using FlowJo software (Macintosh Version 6.3).

human macrophages = details: cited from earlier work
PD-L2 = PD-L2 expression on APC with caspase inhibitors; format: cell-based, human; details: two healthy controls, through four days of culture (FIG. 5D)
Description: as §2
as §3, with “Cells were fixed using 2% paraformaldehyde in PBS after preliminary experiments indicated no effect of cell fixation on expression levels of PD-L1 and other surface markers. To assess apoptosis, some cultures were stained in parallel with Annexin V and propidium iodide (PI) (both from Becton Dickinson) as per the manufacturer's instructions.” left out

Mo = details: in vitro, prior study; cited from earlier work
PBMC = PBMC cell death and apoptosis (Annexin V and PI) with caspase inhibitors; format: cell-based, human; details: 50 uM; control, SLE flare and SLE remission cultures; one day (FIG. 4B)
Description: as §1
The inhibitors enter living cells and bind irreversibly at the caspase active sites, preventing further proteolytic activity by the enzyme. After incubation with caspase inhibitors, PBMC were gated by forward and side scatter and analyzed for percent cell death and apoptosis using Annexin V and PI (see FIG. 10). […] However, higher doses of some caspase-specific inhibitors (50 uM), did alter PD-L1 levels, both in Mo and mDC (example shown in FIG. 11). Normal PBMC were incubated in medium with or without various caspase inhibitors, and PD-L1 protein levels assessed at day one. […]

T lymphocytes = test: Foxp3 expression in T lymphocytes of PBMC cultures treated with OPH; format: cell-based, human; details: 50 uM; healthy control and SLE cultures; three days later
Description: PBMC were cultured as above and a duplicate well of each sample treated with 50 uM OPH. PD-L1 upregulation on APC was confirmed in these cultures, and an aliquot of each sample was incubated further in order to allow interaction of APC with autologous T cells in culture. Three days later, the cells were fixed and permeabilized, and the T lymphocytes were assayed for intracellular expression of the regulatory T cell protein, Foxp3.

[1] = tested on: APC surface markers CD80/86; test: Other APC surface markers (CD80/86 etc.) with caspase inhibitors; format: cell-based, human; details: PBMC from healthy controls, SLE flare, SLE remission (FIG. 5B)
Description: as §2
as §3, with “Cells were fixed using 2% paraformaldehyde in PBS after preliminary experiments indicated no effect of cell fixation on expression levels of PD-L1 and other surface markers. To assess apoptosis, some cultures were stained in parallel with Annexin V and propidium iodide (PI) (both from Becton Dickinson) as per the manufacturer's instructions.” left out

Compound: CN(C)CCCN1c2ccccc2Sc2ccc(Cl)cc21 [chlorpromazine]
caspase activation and apoptosis in leukocytes (leukocytes): activate caspases and trigger apoptosis

Compound: COC(=O)CC[C@H](NC(=O)[C@H](CC(=O)OC)NC(=O)OCc1ccccc1)C(=O)N[C@H](C(=O)N[C@@H](CC(=O)OC)C(=O)CF)C(C)C [Z-DEVD-fmk]
PD-L1 levels (PD-L1 on APC; normal PBMC, control mDC, day one (FIG. 11)): greatly increased

Compound: Infliximab: can cause a lupus-like syndrome in susceptible individuals
caspase activation and apoptosis in human macrophages (human macrophages): promote caspase activation and apoptosis

PD-L2 expression (PD-L2): not increased
Compound: COC(=O)C[C@H](NC(=O)[C@H](C)NC(=O)[C@@H](NC(=O)OCc1ccccc1)C(C)C)C(=O)CF [Z-VAD, Z- Val-Ala-Asp-(beta-o-methyl)-fluroromethylketone] (Cbz-Val-Ala-Asp(OMe)-CH2F)
reciprocal relationship between caspase activity and Mo PD-L1 expression (PD-L1 on APC; all PBMC treated): held true

Compound: COc1c(C)c2c(c(O)c1C/C=C(\C)CCC(=O)OCCN1CCOCC1)C(=O)OC2 [mycophenolate mofetil]
effect on markers of Mo differentiation and maturation (Mo): no significant effect

Compound: CCN(CC)CCCC(C)Nc1ccnc2cc(Cl)ccc12 (stereo not drawn) [chloroquine]
effect on markers of Mo differentiation and maturation (Mo): no significant effect

PD-L2 expression (PD-L2): not increased
other APC surface markers [1]: does not increase
Compound: CC(C)[C@H](NC(=O)c1ccc2ccccc2n1)C(=O)N[C@@H](CC(=O)O)C(=O)COc1c(F)cccc1F [OPH, Q- Val-Asp-(non-o-methylated)—OPh]
apoptosis in PBMC (PBMC): reduces
level of Foxp3 expression (Foxp3 MFI and number of CD4+ cells expressing Foxp3) (T lymphocytes): remained unchanged
PD-L1 expression on the surface of both Mo and mDC (PD-L1 on APC; 50 uM, day one): increased
PD-L1 expression in Mo compared to untreated (PD-L1 on APC; 50 uM, controls, SLE flare, SLE remission (FIG. 4C)): significantly increases
PD-L1 on APC from healthy controls (PD-L1 on APC; CD80/86+ APC, one day (FIG. 7)): upregulated PD-L 1 further; also recorded: increased
PD-L1 on PBMC (PD-L1 on APC; FIG. 5A): increases
number of CD14int among PD-L1+ PBMC (PD-L1 on APC; FIG. 5A): increases
mean percentage of Mo expressing PD-L1 (PD-L1 on APC; SLE flare, 50 uM, untreated 45%): 97%
mean percentage of mDC expressing PD-L1 (PD-L1 on APC; all three groups, 50 uM, P<0.013): more than doubled
increase of PD-L1 expression in immature mDC (PD-L1 on APC; all three groups, 50 uM, p<0.02): two- to three-fold
PD-L1 levels in SLE flare APC (PD-L1 on APC; one day (FIG. 7)): approached those of untreated control cells; also recorded: restored normal levels

Compound: Sc1ncnc2nc[nH]c12 [6-mercaptopurine]
effect on markers of Mo differentiation and maturation (Mo): no significant effect

Reference: patent US11860161B2, “Detection and treatment of autoimmune disorders” (Seattle Children's Hospital, priority 2007, dated 2024)
